Reference: patent US4272437A, “Antibacterial agents, and 4-thio azetidinone intermediates” (priority 1979, dated 1981)
Values after ≈ are worked out from the molar mass of the structure shown. Where two headings read alike, the source gives them in different places.

What was measured:
[1] = system: Staph. aureus A-9537; experiment: MIC, tube dilution, Staphylococcus aureus A9537; type: cell-based; conditions: Staphylococcus aureus, A9537, Staph. aureus A9537; overnight 37° C., Nutrient Broth; read-out: Minimum Inhibitory Concentration (M.I.C.)
From the text: (§1) Representative compounds of the present invention were subjected to in vitro antibiotic screening against a variety of microorganisms.

[2] = system: S. aureus A9537; experiment: In vivo protection of mice, lethal infection with S. aureus A9537; conditions: Staphylococcus aureus, A9537, im, IM, 2 treatments, read-out: PD50
Method: Representative compounds of the present invention were also tested in vivo in mice and their PD50 (dose of compound in mg/kg required to protect 50% of the treated mice against an otherwise lethal infection of a micro-organism) values determined with respect to the test organisms shown below.

[3] = system: Ent. cloacae A-9656; experiment: MIC, tube dilution, Enterobacter cloacae A9656; type: cell-based; conditions: overnight 37° C., read-out: Minimum Inhibitory Concentration (M.I.C.)
From the text: as §1

[4] = system: Klebsiella species A20468; experiment: MIC, tube dilution, Klebsiella species A20468; type: cell-based; conditions: Klebsiella species (K. pneumoniae) A20468; overnight 37° C.; read-out: Minimum Inhibitory Concentration (M.I.C.)
From the text: as §1

[5] = system: Ps. aeruginosa A-9843A; experiment: MIC, tube dilution, Pseudomonas aeruginosa A9843A; type: cell-based; conditions: Pseudomonas aeruginosa, A9843A, read-out: Minimum Inhibitory Concentration (M.I.C.), Pseudomonas aeruginosa A9843A; overnight 37° C.
From the text: as §1

[6] = system: Pr. mirabilis A-9900; experiment: MIC, tube dilution, Proteus mirabilis A9900; type: cell-based; conditions: overnight 37° C.; for MIC: Proteus mirabilis, A9900, Proteus mirabilis A9900, read-out: Minimum Inhibitory Concentration (M.I.C.)
From the text: as §1

[7] = system: Proteus rettgeri A21203; experiment: MIC, tube dilution, Proteus rettgeri A21203; type: cell-based; conditions: Providencia rettgeri, A21203, Proteus rettgeri A21203; overnight 37° C.; read-out: Minimum Inhibitory Concentration (M.I.C.)
From the text: as §1

[8] = system: Str. pneumoniae A-9585; experiment: MIC, tube dilution, Streptococcus pneumoniae A9585; type: cell-based; conditions: Streptococcus pneumoniae, A9585, Str. pneumoniae A9585; overnight 37° C., Nutrient Broth; read-out: Minimum Inhibitory Concentration (M.I.C.)
From the text: as §1

[9] = system: K. pneumoniae A-15130; experiment: MIC, tube dilution, Klebsiella pneumoniae A15130; type: cell-based; conditions: Klebsiella pneumoniae, A15130, K. pneumoniae A15130; overnight 37° C.; read-out: Minimum Inhibitory Concentration (M.I.C.)
From the text: as §1

[10] = system: Proteus vulgaris A21559; experiment: MIC, tube dilution, Proteus vulgaris A21559; type: cell-based; conditions: Proteus vulgaris, A21559, Proteus vulgaris A21559; overnight 37° C.; read-out: Minimum Inhibitory Concentration (M.I.C.)
From the text: as §1

[11] = system: Str. pyogenes A-9604; experiment: MIC, tube dilution, Streptococcus pyogenes A9604; type: cell-based; conditions: Streptococcus pyogenes, A9604, Str. pyogenes A9604; overnight 37° C., Nutrient Broth; read-out: Minimum Inhibitory Concentration (M.I.C.)
From the text: as §1

[12] = system: Ps. aeruginosa A-21213; experiment: MIC, tube dilution, Pseudomonas aeruginosa A21213; type: cell-based; conditions: overnight 37° C., read-out: Minimum Inhibitory Concentration (M.I.C.)
From the text: as §1

[13] = system: Ser. marcescens A-20019; experiment: MIC, tube dilution, Serratia marcescens A20019; type: cell-based; conditions: Serratia marcescens, A20019, Serratia marcescens A20019; overnight 37° C.; read-out: Minimum Inhibitory Concentration (M.I.C.)
From the text: as §1

[14] = system: Staph. aureus (Meth-Res) A-15097; experiment: MIC, tube dilution, Staphylococcus aureus A15097 (Meth-Res); type: cell-based; conditions: Staphylococcus aureus, overnight 37° C.
From the text: as §1

[15] = system: E. coli A-15119; experiment: MIC, tube dilution, Escherichia coli A15119; type: cell-based; conditions: Escherichia coli, A15119, E. coli A15119; overnight 37° C.; read-out: Minimum Inhibitory Concentration (M.I.C.)
From the text: as §1

[16] = system: E. coli A-20341-1; experiment: MIC, tube dilution, Escherichia coli A20341-1; type: cell-based
From the text: as §1

[17] = system: Staph. aureus (Pen-Res) A-9606; experiment: MIC, tube dilution, Staphylococcus aureus A9606 (Pen-Res); type: cell-based; conditions: Staphylococcus aureus, Staph. aureus A9606 (Pen-Res); overnight 37° C.; read-out: Minimum Inhibitory Concentration (M.I.C.)
From the text: as §1

[18] = system: Pr. morganii A-15153; experiment: MIC, tube dilution, Proteus morganii A15153; type: cell-based; conditions: overnight 37° C.; for MIC: Morganella morganii, A15153, Proteus morganii A15153, read-out: Minimum Inhibitory Concentration (M.I.C.)
From the text: as §1

[19] = system: Ent. cloacae A-9659; experiment: MIC, tube dilution, Enterobacter cloacae A9659; type: cell-based; conditions: Enterobacter cloacae, A9659, Enterobacter cloacae A9659; overnight 37° C.; read-out: Minimum Inhibitory Concentration (M.I.C.)
From the text: as §1

[20] = system: Str. faecalis A-20688; experiment: MIC, tube dilution, Streptococcus faecalis A20688; type: cell-based; conditions: Enterococcus faecalis, A20688, Str. faecalis A20688; overnight 37° C.; read-out: Minimum Inhibitory Concentration (M.I.C.)
From the text: as §1

[21] = system: Staph. aureus A-9537 and 50% serum; experiment: MIC, tube dilution, Staph. aureus A9537 + 50% serum; type: cell-based, Staphylococcus aureus; conditions: Staphylococcus aureus, overnight 37° C., read-out: Minimum Inhibitory Concentration (M.I.C.)
From the text: as §1

[22] = Enterobacter cloacae, A9656, Enterobacter cloacae A9656
[23] = read-out: Minimum Inhibitory Concentration (M.I.C.), Staph. aureus A15097 (Meth-Res)
[24] = Escherichia coli, A203411, E. coli A20341-1; overnight 37° C.; read-out: Minimum Inhibitory Concentration (M.I.C.)
[25] = Staph. aureus A15097 (Meth-Res), read-out: Minimum Inhibitory Concentration (M.I.C.)
[26] = Pseudomonas aeruginosa, A21213, Pseudomonas aeruginosa A21213

Structure (SMILES)	MIC [1] [µg/mL]	MIC [3, 22] [µg/mL]	MIC [4] [µg/mL]	MIC [5] [µg/mL]	MIC [6] [µg/mL]	MIC [7] [µg/mL]	MIC [8] [µg/mL]	MIC [9] [µg/mL]	MIC [10] [µg/mL]	MIC [11] [µg/mL]	MIC ([12]; Pseudomonas aeruginosa A21213) [µg/mL]	MIC [13] [µg/mL]	MIC [15] [µg/mL]	MIC [16, 24] [µg/mL]	MIC [17] [µg/mL]	MIC [18] [µg/mL]	MIC [19] [µg/mL]	MIC [20] [µg/mL]	MIC [21] [µg/mL]	MIC [14, 25] [µg/mL]	further results
O=C(O)C1=C(CCC[N+](=O)[O-])SC2CC(=O)N12 (stereo not shown) [Example 91, 2-(3'-Nitropropyl)-penem-3-carboxylic Acid]	0.25 (≈ 0.968 µM)	2 (≈ 7.74 µM)	> 125	125 (≈ 484 µM)	1 (≈ 3.87 µM)	2 (≈ 7.74 µM)	0.25 (≈ 0.968 µM)	16 (≈ 62 µM)	8 (≈ 31 µM)	0.25 (≈ 0.968 µM)	125 (≈ 484 µM)	4 (≈ 15.5 µM)	1 (≈ 3.87 µM)	63 (≈ 244 µM)	32 (≈ 124 µM)	4 (≈ 15.5 µM)	4 (≈ 15.5 µM)	63 (≈ 244 µM)	16	–	ED50 ([2]; 9.1 × 10^5 organisms): 9.6 mg/kg; MIC [14, 23]: > 125 µg/mL
CC1=C(C(=O)O)N2C(=O)[C@H]([C@@H](C)O)[C@H]2S1 (relative stereo) [Example 60, (1'R,5R,6S and 1'S,5S,6R) 6-(1'-Hydroxy-1'-ethyl)-2-methylpenem-3-carboxylic Acid (isomer B)]	2 (≈ 8.72 µM)	16 (≈ 69.8 µM)	16 (≈ 69.8 µM)	> 125	32 (≈ 140 µM)	16 (≈ 69.8 µM)	0.25 (≈ 1.09 µM)	16 (≈ 69.8 µM)	16 (≈ 69.8 µM)	1 (≈ 4.36 µM)	> 125	16 (≈ 69.8 µM)	16 (≈ 69.8 µM)	16 (≈ 69.8 µM)	4 (≈ 17.4 µM)	32 (≈ 140 µM)	32 (≈ 140 µM)	63 (≈ 275 µM)	8	8 (≈ 34.9 µM)	ED50 ([2]; 6.6 × 10^5 organisms): 7.7 mg/kg; Minimum Inhibitory Concentration (M.I.C.) ([6]; Proteus mirabilis A9900): 16 µg/mL; Minimum Inhibitory Concentration (M.I.C.) ([18]; Proteus morganii A15153): 16 µg/mL
N#CCCC(N)C1=C(C(=O)O)N2C(=O)C[C@H]2S1 (stereo partly shown) [Example 83, 2-(1'-Amino-3'-cyanopropyl)-penem-3-carboxylic Acid]	0.5 (≈ 1.97 µM)	4 (≈ 15.8 µM)	> 125	63 (≈ 249 µM)	2 (≈ 7.9 µM)	4 (≈ 15.8 µM)	0.06 (≈ 0.237 µM)	8 (≈ 31.6 µM)	8 (≈ 31.6 µM)	0.13 (≈ 0.513 µM)	–	4 (≈ 15.8 µM)	2 (≈ 7.9 µM)	16 (≈ 63.2 µM)	32 (≈ 126 µM)	4 (≈ 15.8 µM)	16 (≈ 63.2 µM)	125 (≈ 494 µM)	8	> 125	ED50 ([2]; 1.1 × 10^6 organisms): 3.3 mg/kg; MIC [12, 26]: 63 µg/mL (≈ 249 µM)
CC1=C(C(=O)O)N2C(=O)[C@H]([C@@H]3COC(C)(C)O3)[C@H]2S1 (relative stereo) [Example 103, (4'R,5R,6S and 4'S,5S,6R) 6-(2',2'-Dimethyl-1',3'-dioxolan-4'-yl)-2-methylpenem-3-carboxylic Acid (Isomer C)]	> 63	> 63	> 63	63 (≈ 221 µM)	63 (≈ 221 µM)	> 63	63 (≈ 221 µM)	> 63	> 63	63 (≈ 221 µM)	–	> 63	> 63	> 63	> 63	> 63	> 63	> 63	> 32	> 63	ED50 ([2]; 8 × 10^5 organisms): > 5 mg/kg; MIC [12, 26]: 63 µg/mL (≈ 221 µM)
CC(N)CCC1=C(C(=O)O)N2C(=O)C[C@H]2S1 (stereo partly shown) [Example 80, 2-(3'-Aminobutyl)-penem-3-carboxylic Acid]	0.06 (≈ 0.248 µM)	8 (≈ 33 µM)	> 63	63 (≈ 260 µM)	4 (≈ 16.5 µM)	8 (≈ 33 µM)	0.03 (≈ 0.124 µM)	8 (≈ 33 µM)	8 (≈ 33 µM)	0.06 (≈ 0.248 µM)	–	8 (≈ 33 µM)	4 (≈ 16.5 µM)	8 (≈ 33 µM)	0.5 (≈ 2.06 µM)	16 (≈ 66 µM)	16 (≈ 66 µM)	16 (≈ 66 µM)	0.25	> 63	ED50 ([2]; 8 × 10^5 organisms): 0.6 mg/kg; MIC [12, 26]: > 63 µg/mL
CC1(C)OCC(C(N)C2=C(C(=O)O)N3C(=O)CC3S2)O1 [Example 84, (1'R,2'R,5R and 1'S,2'S,5S),(1'R,2'R,5S and 1'S,2'S,5R), (1'R,2'S,5S and 1'S,2'R,5R), (1'R,2'S,5R and 1'S,2'R,5S) 2-(1'-Amino-2,3-dihydroxy-2,3-acetonylpropyl)-penem-3-carboxylic Acid]	4 (≈ 13.3 µM)	–	> 125	> 125	8 (≈ 26.6 µM)	32 (≈ 107 µM)	1 (≈ 3.33 µM)	125 (≈ 416 µM)	63 (≈ 210 µM)	1 (≈ 3.33 µM)	> 125	63 (≈ 210 µM)	16 (≈ 53.3 µM)	–	16 (≈ 53.3 µM)	16 (≈ 53.3 µM)	125 (≈ 416 µM)	> 125	32	–	ED50 ([2]; 1 × 10^6 organisms): 33 mg/kg; MIC ([3]; Enterobacter cloacae A9656): 125 µg/mL (≈ 416 µM); MIC [14, 23]: > 125 µg/mL; MIC ([16]; Escherichia coli, A203411; E. coli A20341-1; overnight 37° C.; read-out: Minimum Inhibitory Concentration (M.I.C.)): > 125 µg/mL
C[C@@H](O)[C@H]1C(=O)N2C(C(=O)O)=C(CN)S[C@H]12 (relative stereo) [Example 62, (1'R,5R,6S and 1'S,5S,6R) 2-Aminomethyl-6-(1'-hydroxy-1'-ethyl)-penem-3-carboxylic Acid (isomer B)]	0.03 (≈ 0.123 µM)	1 (≈ 4.09 µM)	32 (≈ 131 µM)	2 (≈ 8.19 µM)	2 (≈ 8.19 µM)	2 (≈ 8.19 µM)	0.03 (≈ 0.123 µM)	16 (≈ 65.5 µM)	2 (≈ 8.19 µM)	0.5 (≈ 2.05 µM)	–	16 (≈ 65.5 µM)	8 (≈ 32.8 µM)	8 (≈ 32.8 µM)	0.25 (≈ 1.02 µM)	2 (≈ 8.19 µM)	32 (≈ 131 µM)	32 (≈ 131 µM)	0.25	0.5 (≈ 2.05 µM)	ED50 ([2]; 8.6 × 10^5 organisms): 1 mg/kg
